{"source": "PubChem BioAssay AID1902", "about": "(Broad Institute, 2009)", "note": "Active and inactive are the calls of the source.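 The calls were made as follows: active = EC50 no more than a set limit of log units above the highest dose; inactive = the rest.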", "data": [{"molecular_target": "S. pyogenes SKKanGAS, kanamycin survival, BacTiterGlo, 6 h", "assay": "SKKanGAS survival reduction under kanamycin, dose response, streptokinase promoter inhibitor project, SKKanGAS strain, luminescence, dose confirmation (AID 1902);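 also: lower survival reflects blocked streptokinase promoter driving kanamycin resistance gene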", "values": [{"compound": "COC(=O)c1ccc(Oc2nc3ccccc3n3c(C)nnc23)cc1", "EC50": "6.1 µM"}, {"compound": "O=S(=O)(NCc1nnc2c(C(F)(F)F)cc(Cl)cn12)c1ccccc1", "EC50": "> 15 µM (inactive)"}, {"compound": "O=C(/C=C/c1ccccc1)NC(NC(=S)Nc1cccc(Cl)c1)C(Cl)(Cl)Cl", "note": "(configuration not stated)", "EC50": "1.85 µM"}, {"compound": "O=C(CNC(=O)c1ccc2c(c1)OCO2)N/N=C/c1cc(Br)ccc1O", "EC50": "2.38 µM"}, {"compound": "O=C(Nc1cccnc1)Nc1cc(Cl)cc(Cl)c1", "EC50": "8.7 µM"}, {"compound": "FC(F)(F)c1nc(N2CCN(c3ccccc3)CC2)nc2c1CCCCC2", "EC50": "2.77 µM"}, {"compound": "O=Cc1cc(N=Nc2ccccc2Cl)ccc1O", "EC50": "2.96 µM"}, {"compound": "Cc1ccc(Oc2ccc3c(c2)C(=O)N(c2ccc(S(=O)(=O)Nc4nccs4)cc2)C3=O)cc1", "EC50": "3.06 µM"}, {"compound": "CCCOC(=O)c1ccc(Oc2cn[nH]c2-c2ccc(OCC)cc2O)cc1", "EC50": "1.37 µM"}, {"compound": "c1ccc(-c2onc(-c3ccco3)c2-c2ccc3[nH]ccc3c2)cc1", "EC50": "4.2 µM"}, {"compound": "N#Cc1ccc(C(=O)Nc2nc(SCc3ccc(Cl)cc3)n[nH]2)cc1", "EC50": "1.52 µM"}, {"compound": "Clc1cccc(Cl)c1C1Nc2cccc3cccc(c23)N1", "EC50": "8.81 µM"}, {"compound": "C[C@H]1c2cccc(O)c2C(O)=C2C(=O)[C@]3(O)C(O)=C(C(N)=O)C(=O)[C@@H](N(C)C)C3[C@@H](O)C21", "note": "(some centres not stated)", "EC50": "< 0.06 µM"}, {"compound": "O=C(c1cccs1)N1N=C(c2ccccc2)CC1c1ccccc1", "note": "(configuration not stated)", "EC50": "6.41 µM"}, {"compound": "COc1cc(OC)cc(C(=O)Nc2nc(-c3ccccc3)c(-c3ccccc3)o2)c1", "EC50": "0.629 µM"}, {"compound": "Cc1nn(-c2ccccc2)c(Cl)c1/C=N/Nc1ccc(S(=O)(=O)Nc2ccccc2C(=O)O)cc1[N+](=O)[O-]", "EC50": "1.29 µM"}, {"compound": "Cc1ccccc1-c1cc2nc(-c3ccc([N+](=O)[O-])cc3)cc(=O)n2[nH]1", "EC50": "11.9 µM"}, {"compound": "O=S(=O)(c1ccc(F)cc1)c1nc(-c2ccccc2)oc1N1CCOCC1", "EC50": "> 15 µM (inactive)"}, {"compound": "CC(C)Sc1cc(N2CCCC2)nc(-c2ccc(F)cc2)n1", "EC50": "5.9 µM"}, {"compound": "CC1CC(NC(=O)c2c(O)nc3sccn3c2=O)CC(C)(C)C1", "note": "(configuration not stated)", "EC50": "7.03 µM"}, {"compound": "NS(=O)(=O)c1ccc(-c2ccc(/C=C3\\SC(=S)N(C4CCS(=O)(=O)C4)C3=O)o2)cc1", "note": "(configuration not stated)", "EC50": "4.95 µM"}, {"compound": "COc1c(CC=C(C)C)cc(C2CC(=O)c3c(O)cc(O)cc3O2)c(CC=C(C)C)c1O", "note": "(configuration not stated)", "EC50": "1.87 µM"}, {"compound": "COc1cc(/C=N/NC(=O)c2cc(-c3c(C)nn(-c4ccccc4)c3C)n[nH]2)ccc1O", "EC50": "2.97 µM"}, {"compound": "COc1cc2c(C#N)c(N3CCN(c4ccccc4OC)CC3)nc(N)c2c(N)n1", "EC50": "4.67 µM"}, {"compound": "COc1ccccc1/C=C/c1ccc2cccc(O)c2n1", "EC50": "1.18 µM"}, {"compound": "Cc1c(Cl)cccc1NC(=S)NCCC(c1ccccc1)c1ccccc1", "EC50": "9.25 µM"}, {"compound": "Clc1ccccc1C(c1ccccc1)(c1ccccc1)n1ccnc1", "EC50": "6.21 µM"}, {"compound": "Nc1ccc(N=Nc2ccccc2)c2ccccc12", "EC50": "6.71 µM"}, {"compound": "CCn1cnc2c1c(=O)n(CC(=O)Nc1cc(C)on1)c(=O)n2Cc1ccccc1", "EC50": "> 15 µM (inactive)"}, {"compound": "N#Cc1c(-c2ccccc2)nc(SCc2ccc(Cl)cc2)[nH]c1=O", "EC50": "6.47 µM"}, {"compound": "C/C(N)=C(/C#N)C(=O)CSc1nc2cc(Cl)ccc2c(=O)n1Cc1ccco1", "EC50": "8.74 µM"}, {"compound": "O=C1NC(=Nc2ccc(Cl)cc2)SC1Cc1cccc(Cl)c1Cl", "note": "(configuration not stated)", "EC50": "6.95 µM"}, {"compound": "Cc1ncc(CO)c(/C=N/NC(=S)Nc2ccc(Cl)c(Cl)c2)c1O", "EC50": "5.9 µM"}, {"compound": "CCCCNc1c(-c2cccc(-c3ccc(OC)cc3)c2)nc2ccc(C)cn12", "EC50": "4.05 µM"}, {"compound": "Oc1c(C(c2ccc(Cl)cc2)N2CCCC2)cc(Cl)c2cccnc12", "note": "(configuration not stated)", "EC50": "1.53 µM"}, {"compound": "Cc1cc(Cl)ccc1NC(=S)NCCC(c1ccccc1)c1ccccc1", "EC50": "11.1 µM"}, {"compound": "Cc1cccc(NC(=S)/N=C(\\N)Nc2nc(C)c3ccc(C)cc3n2)c1", "EC50": "> 15 µM (inactive)"}, {"compound": "FC(F)(F)c1cccc(NC(=S)NNC(=S)Nc2cccc(C(F)(F)F)c2)c1", "EC50": "0.804 µM"}, {"compound": "CC1(C)CC(=O)C(C2C3=C(CC(C)(C)CC3=O)Oc3c(Br)cc(Br)cc32)=C(O)C1", "note": "(configuration not stated)", "EC50": "4.06 µM"}, {"compound": "C=CCn1c(N2C(=O)CC(Cc3ccccc3)C2=O)nc2ccccc21", "note": "(configuration not stated)", "EC50": "4.5 µM"}, {"compound": "O=c1c2ccccc2sn1-c1cc(S(=O)(=O)N2CCOCC2)ccc1N1CCOCC1", "EC50": "13.3 µM"}, {"compound": "O=C1c2ccccc2CCC12N=NCC2c1ccc(Br)cc1", "note": "(configuration not stated)", "EC50": "14.8 µM"}, {"compound": "Oc1ccc(/C=N/Nc2nc(N3CCCCCC3)nc(N3CCCCCC3)n2)c(O)c1", "EC50": "1.73 µM"}, {"compound": "COC(=O)c1cccc(NC(=S)NCc2ccc(Cl)cc2)c1", "EC50": "9.26 µM"}, {"compound": "COc1ccc(C(=O)N/N=C/c2cc(Br)ccc2O)cc1OC", "EC50": "1.28 µM"}, {"compound": "O=C(N/N=C(\\c1ccccc1)c1cccnc1)c1cccc(F)c1", "EC50": "3.49 µM"}, {"compound": "CCOC(=O)c1c(NC(=S)NCCc2ccccc2)sc2c1CC(C(C)C)OC2", "note": "(configuration not stated)", "EC50": "0.602 µM"}, {"compound": "CC(C)(C)C1CCC2(CC1)C(C#N)=C(SCC(=O)Nc1ccccc1)NC(=O)C2C#N", "note": "(configuration not stated)", "EC50": "4.25 µM"}, {"compound": "O=C(O)C(c1ccccc1)N1C(=O)/C(=C\\c2ccc(-c3ccc(Br)cc3)o2)SC1=S", "note": "(configuration not stated)", "EC50": "1.27 µM"}, {"compound": "Oc1ccc(Cl)cc1-c1cc(-c2cccc(Br)c2)n[nH]1", "EC50": "3.62 µM"}, {"compound": "Cn1ncc2c(Nc3cccc(Cl)c3)nc(Nc3cccc(Cl)c3)nc21", "EC50": "2.67 µM"}, {"compound": "CC(C)NC(=S)NC(c1ccccc1)(c1ccccc1)c1ccccc1", "EC50": "4.87 µM"}, {"compound": "COC(=O)c1c(NC(=O)c2ccccc2)sc(C(=O)c2ccccc2)c1C", "EC50": "5.41 µM"}, {"compound": "CCc1c(C2(O)CCCCC2)[nH]c2c(C(=O)OC)cc(Cl)cc12", "EC50": "4.12 µM"}, {"compound": "CC(C)N1CCc2c(sc(NC(=O)c3ccc([N+](=O)[O-])o3)c2C(N)=O)C1", "EC50": "3.5 µM"}, {"compound": "O=C(CC1SC(=Nc2ccccc2)N(CCc2c[nH]c3ccccc23)C1=O)Nc1ccccc1F", "note": "(configuration not stated)", "EC50": "7.21 µM"}, {"compound": "COc1ccc(N2CCN(C(=O)c3cc(C)oc3C)CC2)cc1", "EC50": "> 15 µM (inactive)"}, {"compound": "Cc1cccc(N=Nc2c(C)nn(-c3ccccc3)c2N)c1C", "EC50": "11.8 µM"}, {"compound": "Cc1nc(N2CCC(C)CC2)c2c(C)c(C(=O)Nc3ccccc3C(F)(F)F)sc2n1", "EC50": "6.04 µM"}, {"compound": "c1ccc(-c2cc3c(NCC4COc5ccccc5O4)ncnc3s2)cc1", "note": "(configuration not stated)", "EC50": "2.98 µM"}, {"compound": "Clc1ccc(COn2c(-c3ccc(Cl)cc3)nc3ccccc32)cc1", "EC50": "6.12 µM"}, {"compound": "COc1ccc(N=C2NN=C(c3c(C)[nH]c4ccccc34)CS2)cc1", "EC50": "7.32 µM"}, {"compound": "CCCCNc1c(-c2ccc(OC)c(SC3CCCCC3)c2)nc2cc(C)ccn12", "EC50": "3.89 µM"}, {"compound": "Cc1cc2occ(CC(=O)NC3=NCCS3)c2cc1C(C)C", "EC50": "4.35 µM"}, {"compound": "CCc1ccc(N=C2NC(=O)/C(=C/c3cc(OC)c(O)c(OC)c3)S2)cc1", "EC50": "4.44 µM"}, {"compound": "Oc1ccc(Br)cc1/C=N/Nc1ncc(-c2ccccc2)cn1", "EC50": "1.7 µM"}, {"compound": "O=C(CN(c1cccc(Br)c1)S(=O)(=O)c1ccccc1)N/N=C/c1cc([N+](=O)[O-])ccc1O", "EC50": "0.441 µM"}, {"compound": "CCOC(=O)C1=C(c2ccc(OC)cc2)C(=O)c2ccccc2C1=O", "EC50": "1.78 µM"}, {"compound": "O=C(N/N=C/c1ccccc1O)c1cccc2ccccc12", "EC50": "3.08 µM"}, {"compound": "Cc1coc2c1C(=O)C(=O)c1c-2ccc2c(C)cccc12", "EC50": "2.75 µM"}, {"compound": "Fc1ccc(CSc2ncnc3sc4c(c23)CCCC4)cc1", "EC50": "3.97 µM"}, {"compound": "CCOC(=O)c1ccc(NC(=O)c2nc[nH]c2C(=O)N[C@@H](CCCCNC(=O)OC(C)(C)C)C(=O)OC(C)(C)C)cc1", "EC50": "4.72 µM"}, {"compound": "CS(=O)(=O)c1ccc2nc(NC(=O)c3ccc(NS(=O)(=O)c4cccc([N+](=O)[O-])c4)cc3)sc2c1", "EC50": "1.64 µM"}, {"compound": "COc1cccc(/C=N/Nc2ccc([N+](=O)[O-])cn2)c1O", "EC50": "0.637 µM"}, {"compound": "CSCc1nnc(NC(=O)c2ccc(S(=O)(=O)N(CC(C)C)CC(C)C)cc2)o1", "EC50": "0.724 µM"}, {"compound": "N#C/C(=N\\Nc1ccc(S(=O)(=O)N2CCOCC2)cc1)C(N)=S", "EC50": "> 15 µM (inactive)"}, {"compound": "FC(F)(F)c1cccc(NC(=S)N2CCCC2)c1", "EC50": "> 15 µM (inactive)"}]}]}
